Assay results taken from the NIST ThermoML archive (doi:10.1016/j.jct.2013.09.018).

Assays:
[1] = cn = amount concentration of the nth substance listed, in mol/dm3; conditions: 101 kPa, Liquid; for viscosity: Capillary tube (Ostwald / Ubbelohde) method; for mass density: Vibrating tube method
[2] = 101 kPa, Liquid; for viscosity: Capillary tube (Ostwald / Ubbelohde) method; for mass density: Vibrating tube method

CCCCn1cc[n+](C)c1C.F[B-](F)(F)F [1-butyl-2,3-dimethylimidazolium tetrafluoroborate] + CO
[1]
Conditions	mass density, c1 = 0.005 [kg/m3]	mass density, c1 = 0.01 [kg/m3]	mass density, c1 = 0.015 [kg/m3]	mass density, c1 = 0.02 [kg/m3]	viscosity, c1 = 0.005 [mPa·s]	viscosity, c1 = 0.01 [mPa·s]	viscosity, c1 = 0.015 [mPa·s]	viscosity, c1 = 0.02 [mPa·s]
298.15 K	787.59	788.04	788.45	788.96	0.552	0.5649	0.5747	0.5845
308.15 K	778.01	778.52	778.98	779.46	0.487	0.4978	0.5043	0.513
318.15 K	768.49	769.43	769.92	770.36	0.4271	0.436	0.4446	0.4532

CO [methanol]
[2]
Conditions	mass density [kg/m3]	viscosity [mPa·s]
298.15 K	786.61	0.545
308.15 K	777.15	0.476
318.15 K	767.74	0.4183

CO [methanol] + CCCCn1cc[n+](C)c1C.F[B-](F)(F)F
[1], c2 = 0
Conditions	mass density [kg/m3]	viscosity [mPa·s]
298.15 K	786.61	0.545
308.15 K	777.15	0.476
318.15 K	767.74	0.4183
